Series [1] has as its system HEK-293T. Kind of series: Cytotoxicity against human HEK293T cells expressing AP-1 at 80 uM after 18 hrs by XTT assay. In kind it is cell-based. In general terms: Tetrazolium assays rely on reduction of a dye to a coloured formazan, in cell work by metabolically active cells.
For the next series, the target named is Transcription factor Jun (Homo sapiens, UniProt P05412). Kind of series: Inhibition of TPA-induced AP-1 activity expressed in human HEK293T cells treated 1 hr before TPA challenge measured after 18 hrs by FRET based beta-lactamase reporter assay. The class given is cell-based, HEK-293T. As to conditions: for inhibition: HEK-293T.
Transcription factor Jun, sequence (P05412 whole entry): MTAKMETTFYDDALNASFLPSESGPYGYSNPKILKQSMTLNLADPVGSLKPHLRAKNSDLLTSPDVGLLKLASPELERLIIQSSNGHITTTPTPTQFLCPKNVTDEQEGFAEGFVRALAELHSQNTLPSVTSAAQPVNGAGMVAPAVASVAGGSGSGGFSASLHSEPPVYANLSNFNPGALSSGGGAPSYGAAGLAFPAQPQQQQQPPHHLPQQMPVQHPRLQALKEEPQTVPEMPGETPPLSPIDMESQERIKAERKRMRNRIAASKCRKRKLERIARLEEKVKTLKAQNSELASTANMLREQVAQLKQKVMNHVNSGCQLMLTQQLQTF
Series [2] relates to HEK-293T. Kind of series: Cytotoxicity against human HEK293T cells expressing AP-1 after 18 hrs by XTT assay. The class given is cell-based.

A word on the EC50: it is the concentration giving half of the maximal effect. The low end stands for a more potent agent, the high end for a less potent agent. Take `CC[C@](C)(O)C(=O)O[C@H]1C(=O)O[C@@H]2C[C@H]3C(C)=CC(=O)[C@@H](O)[C@]3(C)[C@H]3[C@@]4(O)OC[C@]32[C@@H]1[C@@H](C)[C@H]4O` [GLAUCARUBINONE]: in the series on HEK-293T [1], the Activity result is reported as “Non-toxic”. In addition, on Transcription factor Jun, the EC50 worked out at 0.13 µM and the inhibition result is “Dose-dependent effect”.
By IC50 is commonly meant the midpoint of a concentration-inhibition curve. In the series on HEK-293T [2], `COC1=C(C)[C@@H]2CC(=O)O[C@@H]3C[C@H]4[C@H](C)[C@@H](O)[C@H](O)C(=O)[C@]4(C)[C@@H](C1=O)[C@@]32C` [NOTHOSPONDIN] had an IC50 of 10 µM. At Transcription factor Jun, the EC50 amounted to 1.49 µM and the inhibition result is “Dose-dependent effect”.

For the origin of these results see ChEMBL document CHEMBL1806496, “Nothospondin, a new AP-1 inhibitory quassinoid from the Cameroonian plant Nothospondias staudtii” (Bioorg Med Chem Lett, 2011).
